According to patent US20180264134A1, “A COMPOSITION OF GOLD NANOPARTICLES HAVING ANTIMICROBIAL PEPTIDES BOUND ON THEIR SURFACE FOR USE THE TREATMENT OF WOUND HEALING OR IN THE TREATMENT OF ISCHEMIC OR VASCULAR DISEASES OR IN THE TREATMENT OF SKIN DISORDERS” (priority 2015, published 2018):

Tests used:
HaCaT keratinocyte cells = assay: Internalization mechanism (endocytosis inhibitors / siRNA, flow cytometry); assay type: cell-based, human; details: vs scrambled siRNA
Experimental: In an embodiment the HaCaT keratinocyte cells were cultured on 24 well plates (1×10^6 cells/well) and inhibited by one of the following chemicals during 30 min before adding a suspension of Rhodamine-labelled NPs (15 μg/mL): dynasor (100 μM), cytochalasin D (100 μM), nocodazole (25 uM), filipin III (1 μM) and polyinosinic acid (100 μg/mL), 5-(N-ethyl-N-isopropyl)amiloride (EIPA), dextran sulfate. The inhibitor concentrations were based in values reported in literature and further validated by us to have no cytotoxic effect over the period of the assay (6 h), as confirmed by viability assay. The incubation of the cells with NPs for different times was performed in the presence of the inhibitor. As controls, HaCaT keratinocyte cells without NPs and cells incubated with NPs without inhibitor were used. […] Cells were then evaluated as before.
In an embodiment the NP uptake mechanism was also studied on HaCaT keratinocyte cells by silencing specific proteins of clathrin-mediated endocytosis (CLTC and LDLR), caveolin-mediated endocytosis (CAV1), GEEC-CCLIC pathways (CDC42) and macropinocytosis (RAC1 and CTBP1) and scavenger receptor (SCARA3) by siRNA (Thermo Fisher). […] In all FACS analysis, a total of 10,000 events were recorded per run. […]

ERK1/2 = ERK1/2 phosphorylation in HaCaT (ELISA); assay type: cell-based, human; details: LL37 5 μg/mL; LL37-Au NPs 200 μg/mL
Experimental: In an embodiment the detection of EGFR and ERK1/2 phosphorylation, can be perform by: the activation of EGFR receptor in HaCaT (80% confluency, in 6-well plates) was induced by starving the cells for 24 h in DMEM supplemented with 1% (v/v) penicillin and adding soluble LL37, LL37-Au NPs and Au NPs for a given period of time. Following treatment, the plates were immersed in ice and the medium was discarded. Then the proteins were isolated from the cells . . . . The levels of EGFR (phosphorylated EGFR and total EGFR) were determined by ELISA kit (R&D Systems). The activation of ERK signaling pathways in HaCaT (80% confluency, in one 96-well cell culture clear-bottom black microplate) were obtained starving the cells for 24 h in DMEM supplemented with 1% (v/v) penicillin and then stimulating them with soluble LL37 (5 μg/mL), LL37-Au NPs and Au NPs (200 μg/mL). After treatments the level of ERK were determined using a phosphoprotein and total protein ELISA kit (R&D Systems ref. KCB1018) according to the manufacture's instructions. Data were acquired with a BioTek synergy MX microplate reader.

HUVECs = assay: Cytotoxicity in HUVECs (PI viability, ATP, ROS); assay type: cell-based
Experimental: In an embodiment of the cytotoxicity studies in HUVECs and HaCaT may be seeded at a density of 1×10^4 and 2×10^4 cells per well respectively and cultured in a 96-well plate for 24 and then incubated with soluble LL37 (0.5, 1, 10, 30, 60 μg/mL), LL37 Au-NPs and AuNPs suspended in culture medium at different concentrations (25, 50, 100 and 200 μg/mL). After 5 and 24 h, CellTiter-Glo® Luminescent Cell Viability Assay (Promega) was used to assess the ATP production of the cells according to the supplier's instructions. For ROS quantification, cells were seeded at a density of 4×10^4 cells/cm^2 in 24-well plates and cultured for 24 h. Either LL37-Au NPs or Au NPs suspended in culture medium at different concentrations (25, 50, 100 and 200 μg/mL) were added to cells and left for 5 h and 48 h. Before the treatment ended, cells were dosed with 100 μM of 6-carboxy-2′,7′-dichlorodihydrofluorescein diacetate (DCFH-DA), a dye commonly used to measure intracellular changes in ROS, for 1 hour. After washing the cells twice, they were trypsinized, centrifuged and resuspended in PBS to proceed with flow cytometry analysis (FACS Canto II, BD Biosciences). 1 mM H2O2 was used as a positive control for ROS production. In addition, propidium iodide (PI) (1 μg/mL final concentration) was used to quantify cell viability and to exclude the dead cells (i.e. PI positive cells) from the DCFH analysis.

HaCaT = assay: Membrane potential by DiOC5(3) flow cytometry in HaCaT; assay type: cell-based, human
Experimental: In an embodiment the membrane potential can be determined by: HUVEC and HaCaT cells were seeded at a density of 4×10^4 cells/cm^2 and in 24-well plates and cultured for 24 h. […] Soluble LL37 were also used in the concentration of 0.5, 1, 10, 30, 60 μg/mL. After 5 and 48 h, cells were harvested, resuspended in medium with 5 nM of DiOC5(3) (Sigma-Aldrich) and incubated for 5 min at room temperature in the dark, prior to the analysis with the flow cytometer (FACSCalibur, BD Biosciences). Cells treated with gramicidin (10 μM) or valinomycin (10 μM) were used as controls for cell depolarization and hyperpolarization, respectively.

CC[C@H](C)[C@H](NC(=O)[C@H](CCCCN)NC(=O)[C@H](CCC(=O)O)NC(=O)[C@H](CCCCN)NC(=O)[C@H](CO)NC(=O)[C@H](CCCCN)NC(=O)[C@H](CCCNC(=N)N)NC(=O)[C@H](Cc1ccccc1)NC(=O)[C@H](Cc1ccccc1)NC(=O)[C@H](CC(=O)O)NC(=O)CNC(=O)[C@H](CC(C)C)NC(=O)[C@@H](N)CC(C)C)C(=O)NCC(=O)N[C@@H](CCCCN)C(=O)N[C@@H](CCC(=O)O)C(=O)N[C@@H](Cc1ccccc1)C(=O)N[C@@H](CCCCN)C(=O)N[C@@H](CCCNC(=N)N)C(=O)N[C@H](C(=O)N[C@H](C(=O)N[C@@H](CCC(N)=O)C(=O)N[C@@H](CCCNC(=N)N)C(=O)N[C@H](C(=O)N[C@@H](CCCCN)C(=O)N[C@@H](CC(=O)O)C(=O)N[C@@H](Cc1ccccc1)C(=O)N[C@@H](CC(C)C)C(=O)N[C@@H](CCCNC(=N)N)C(=O)N[C@@H](CC(N)=O)C(=O)N[C@@H](CC(C)C)C(=O)N[C@H](C(=O)N1CCC[C@H]1C(=O)N[C@@H](CCCNC(=N)N)C(=O)N[C@H](C(=O)N[C@@H](CCC(=O)O)C(=O)N[C@@H](CO)C(=O)N[C@@H](CS)C(N)=O)[C@@H](C)O)C(C)C)[C@@H](C)CC)C(C)C)[C@@H](C)CC [LL37] was tested, and the “reduction of uptake upon SCARA3 siRNA knockdown” value (HaCaT keratinocyte cells) was 60%, the “time of peak ERK1/2 phosphorylation” value (ERK1/2) was 4 min and the “concentration showing cytotoxic effect” value (HUVECs) was 10000 ng/mL. For the same compound, the “concentration up to which no significant change in cell viability, ATP production, ROS” value (HUVECs; 5 and 48 h) was no more than 30000 ng/mL, the “concentration at which significant cell death and ROS production were observed” value (HUVECs; 48 h) was 30000 ng/mL and the “membrane potential of keratinocytes” value (HaCaT; 5 h of contact) was “hyperpolarized”. The “membrane potential of keratinocytes” value (HaCaT; 48 h of contact) was “not observed”, the “membrane potential of keratinocytes” value (HaCaT; 48 h of contact, listed as LL37 peptide) was “the effect was lost” and the “membrane potential of HaCaT” value (HaCaT; NPs up to 400 μg/mL) was “not altered”. The “concentration causing slight hyperpolarization” value (HaCaT; keratinocytes, 5 h exposure) was “above 25 μg/mL”.
